Columns and labels:
[1] = biological target: Neuropeptide Y receptor type 1 (Homo sapiens) (UniProt P25929); assay: Inhibition of Neuropeptide Y Y1 at 10 µM in the Eurofins-Panlabs radioligand binding assay (Eurofins_assay_257010)
[2] = biological target: Macrophage metalloelastase (Homo sapiens) (UniProt P39900); assay: Peptidase, Matrix Metalloproteinase-12 (MMP-12) Eurofins-Panlabs enzyme assay; conditions: Compound concentration 10.0 uM
[3] = biological target: Adenosine receptor A2a (Homo sapiens) (UniProt P29274); conditions: Compound concentration 10.0 uM
[4] = biological target: L-type calcium channel, benzothiazepine site (Cav1.2 alpha-1C) (Homo sapiens, UniProt Q13936); assay: Inhibition of Calcium Channel L-Type, Benzothiazepine at 10 µM in the Eurofins-Panlabs radioligand binding assay (Eurofins_assay_214510); set-up: ligand concentration 2 nM, non-specific ligand with concentration 10 µM Diltiazem, incubation time 3h, incubation temperature 4 °C; conditions: male, Wistar, rat, rat whole brain preparation, probe [3H] Diltiazem, 2 nM; compound concentration 10 uM; target entry is the homologue from another species
[5] = biological target: Estrogen receptor (Homo sapiens) (UniProt P03372); conditions: Compound concentration 10.0 uM
[6] = biological target: Beta-3 adrenergic receptor (Homo sapiens, UniProt P13945)
[7] = biological target: C-X-C chemokine receptor type 2 (Homo sapiens) (UniProt P25025); assay: Inhibition of Chemokine CXCR2 (IL-8RB) at 10 µM in the Eurofins-Panlabs radioligand binding assay (Eurofins_assay_244500)
[8] = biological target: Endothelin-converting enzyme 1 (Homo sapiens) (UniProt P42892); assay: Peptidase, Endothelin Converting Enzyme-1 (ECE-1) Eurofins-Panlabs enzyme assay; conditions: Compound concentration 10.0 uM
[9] = biological target: Glutamate NMDA receptor (Rattus norvegicus) (UniProt P35439+Q00959+Q00960+Q00961+Q62645+Q8VHN2+Q9R1M7); conditions: Compound concentration 10.0 uM
[10] = biological target: cGMP-specific 3',5'-cyclic phosphodiesterase (Homo sapiens, UniProt O76074)
[11] = biological target: C-C chemokine receptor type 5 (Homo sapiens) (UniProt P51681); assay: Chemokine CCR5 Eurofins-Panlabs radioligand binding assay; conditions: Compound concentration 10.0 uM
[12] = biological target: Peroxisome proliferator-activated receptor gamma (Homo sapiens) (UniProt P37231); assay: PPARgamma Eurofins-Panlabs radioligand binding assay; set-up: ligand concentration 5 nM, non-specific ligand with concentration 0.5 µM L-797773, incubation time 18 h, incubation temperature 15 °C; conditions: Compound concentration 10.0 uM
Homo sapiens [13] = species on record: Homo sapiens; assay: Calcitonin Gene-Related Peptide CGRP1 Eurofins-Panlabs radioligand binding assay; format: protein-complex assay; conditions: Compound concentration 10.0 uM
[14] = biological target: D(2) dopamine receptor (Homo sapiens) (UniProt P14416); conditions: Compound concentration 10.0 uM
[15] = biological target: Prostaglandin E2 receptor EP1 subtype (Homo sapiens) (UniProt P34995); assay: Prostanoid EP1 Eurofins-Panlabs radioligand binding assay; conditions: Compound concentration 10.0 uM
[16] = (§1) Protein Serine/Threonine Kinase, MAPK14 (p38α) Eurofins-Panlabs enzyme assay; set-up: species or system Homo sapiens; substrate with concentration 10 µg/mL Myelin Basic Protein (MBP), incubation time 60 min, incubation temperature 25 °C
Homo sapiens [17] = species on record: Homo sapiens; assay: as §1; set-up: substrate with concentration 10 µg/mL Myelin Basic Protein (MBP), incubation time 60 min, incubation temperature 25 °C
[18] = biological target: T1, Alpha-2C adrenergic receptor (Homo sapiens) (UniProt P18825); assay: (§2) Adrenergic alpha2C Eurofins-Panlabs radioligand binding assay; set-up: ligand concentration 1 nM, non-specific ligand with concentration 10 µM WB-4101, incubation time 60 min, incubation temperature 25 °C
T1 sequence (whole entry): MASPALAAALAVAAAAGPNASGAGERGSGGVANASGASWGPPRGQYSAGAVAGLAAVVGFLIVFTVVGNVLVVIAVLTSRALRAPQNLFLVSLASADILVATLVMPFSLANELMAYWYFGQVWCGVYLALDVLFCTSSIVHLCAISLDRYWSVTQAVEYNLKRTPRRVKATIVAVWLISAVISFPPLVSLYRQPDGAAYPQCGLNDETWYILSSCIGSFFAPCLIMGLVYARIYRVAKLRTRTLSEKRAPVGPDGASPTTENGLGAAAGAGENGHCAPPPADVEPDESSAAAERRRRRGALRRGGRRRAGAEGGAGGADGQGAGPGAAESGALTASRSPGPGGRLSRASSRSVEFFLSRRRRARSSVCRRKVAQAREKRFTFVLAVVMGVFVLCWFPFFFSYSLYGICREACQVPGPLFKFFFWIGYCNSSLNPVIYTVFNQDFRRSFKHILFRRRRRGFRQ

[19] = biological target: Alpha-2C adrenergic receptor (Homo sapiens, UniProt P18825); assay: as §2; set-up: ligand concentration 1 nM, non-specific ligand with concentration 10 µM WB-4101, incubation time 60 min, incubation temperature 25 °C
[20] = biological target: Cannabinoid receptor 1 (Homo sapiens) (UniProt P21554); assay: Cannabinoid CB1 Eurofins-Panlabs radioligand binding assay; conditions: Compound concentration 10.0 uM
[21] = biological target: Histamine H3 receptor (Homo sapiens) (UniProt Q9Y5N1); assay: Histamine H3 Eurofins-Panlabs radioligand binding assay; conditions: Compound concentration 10.0 uM
[22] = biological target: Substance-K receptor (Homo sapiens) (UniProt P21452); assay: Inhibition of Tachykinin NK2 at 10 µM in the Eurofins-Panlabs radioligand binding assay (Eurofins_assay_255600); set-up: ligand concentration 0.5 nM; conditions: Compound concentration 10.0 uM
[23] = biological target: Epidermal growth factor receptor (Homo sapiens, UniProt P00533); assay: Protein Tyrosine Kinase, EGF Receptor Eurofins-Panlabs enzyme assay; set-up: substrate with concentration 10 µg/mL Poly(Glu:Tyr), incubation time 60 min, incubation temperature 25 °C
[24] = biological target: T2, Cysteinyl leukotriene receptor 1 (Homo sapiens) (UniProt Q9Y271); assay: (§3) Inhibition of Leukotriene, Cysteinyl CysLT1 at 10 µM in the Eurofins-Panlabs radioligand binding assay (Eurofins_assay_250460); set-up: ligand concentration 0.3 nM, non-specific ligand with concentration 0.3 µM Leukotriene D4, incubation time 30 min, incubation temperature 25 °C
T2 sequence (whole entry): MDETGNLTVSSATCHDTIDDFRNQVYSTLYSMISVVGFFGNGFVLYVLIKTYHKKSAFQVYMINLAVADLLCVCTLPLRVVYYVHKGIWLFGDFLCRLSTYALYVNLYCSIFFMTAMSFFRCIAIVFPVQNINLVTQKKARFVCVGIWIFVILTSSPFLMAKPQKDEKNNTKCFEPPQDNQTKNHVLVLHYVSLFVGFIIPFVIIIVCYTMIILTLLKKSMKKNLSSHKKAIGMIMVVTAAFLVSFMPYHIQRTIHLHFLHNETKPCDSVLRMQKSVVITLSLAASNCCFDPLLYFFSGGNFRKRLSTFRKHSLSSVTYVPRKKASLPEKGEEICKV

[25] = biological target: Cysteinyl leukotriene receptor 1 (Homo sapiens, UniProt Q9Y271); assay: as §3; set-up: ligand concentration 0.3 nM, non-specific ligand with concentration 0.3 µM Leukotriene D4, incubation time 30 min, incubation temperature 25 °C

Beta-3 adrenergic receptor, sequence (P13945 whole entry, looked up): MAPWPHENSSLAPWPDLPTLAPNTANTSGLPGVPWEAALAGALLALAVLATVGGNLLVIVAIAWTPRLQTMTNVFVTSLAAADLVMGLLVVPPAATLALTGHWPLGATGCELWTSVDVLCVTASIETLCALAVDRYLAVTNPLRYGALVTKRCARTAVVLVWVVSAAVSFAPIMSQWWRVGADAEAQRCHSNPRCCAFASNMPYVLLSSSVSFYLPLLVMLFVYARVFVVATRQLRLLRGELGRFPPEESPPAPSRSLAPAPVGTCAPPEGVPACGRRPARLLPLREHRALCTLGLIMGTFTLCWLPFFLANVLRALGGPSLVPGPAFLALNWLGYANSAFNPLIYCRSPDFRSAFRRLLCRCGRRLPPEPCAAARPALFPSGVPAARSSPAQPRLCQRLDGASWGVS
Epidermal growth factor receptor, sequence (P00533 whole entry): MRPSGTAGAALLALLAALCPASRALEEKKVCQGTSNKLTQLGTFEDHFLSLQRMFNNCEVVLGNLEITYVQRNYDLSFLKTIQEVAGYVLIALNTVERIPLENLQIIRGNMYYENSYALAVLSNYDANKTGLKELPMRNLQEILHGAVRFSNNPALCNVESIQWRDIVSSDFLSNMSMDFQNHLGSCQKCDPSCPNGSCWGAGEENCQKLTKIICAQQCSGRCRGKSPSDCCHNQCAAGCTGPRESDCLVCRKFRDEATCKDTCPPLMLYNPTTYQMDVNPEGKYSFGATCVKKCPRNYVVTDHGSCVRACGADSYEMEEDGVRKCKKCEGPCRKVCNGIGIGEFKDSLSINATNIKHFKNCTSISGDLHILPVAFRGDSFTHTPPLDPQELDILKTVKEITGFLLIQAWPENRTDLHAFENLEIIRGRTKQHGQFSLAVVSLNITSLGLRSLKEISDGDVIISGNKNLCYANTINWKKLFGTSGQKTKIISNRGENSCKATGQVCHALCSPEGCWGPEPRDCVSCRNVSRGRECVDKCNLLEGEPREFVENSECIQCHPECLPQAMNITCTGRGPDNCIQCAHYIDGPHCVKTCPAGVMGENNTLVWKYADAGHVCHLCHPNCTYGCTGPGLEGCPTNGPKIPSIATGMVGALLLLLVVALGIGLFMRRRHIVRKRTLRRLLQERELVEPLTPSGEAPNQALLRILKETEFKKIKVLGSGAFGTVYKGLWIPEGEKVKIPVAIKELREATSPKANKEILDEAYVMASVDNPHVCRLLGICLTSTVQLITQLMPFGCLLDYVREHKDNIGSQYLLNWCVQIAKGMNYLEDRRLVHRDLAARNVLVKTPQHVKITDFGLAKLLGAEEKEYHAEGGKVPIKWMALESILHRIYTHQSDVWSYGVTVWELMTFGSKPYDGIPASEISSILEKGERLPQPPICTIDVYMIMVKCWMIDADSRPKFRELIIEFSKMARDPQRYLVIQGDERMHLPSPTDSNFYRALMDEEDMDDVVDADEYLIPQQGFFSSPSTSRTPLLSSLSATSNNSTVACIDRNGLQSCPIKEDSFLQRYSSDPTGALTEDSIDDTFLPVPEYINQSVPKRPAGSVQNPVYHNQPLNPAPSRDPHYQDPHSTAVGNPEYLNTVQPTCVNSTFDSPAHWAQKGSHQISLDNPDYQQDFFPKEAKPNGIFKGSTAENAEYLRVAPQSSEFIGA
Neuropeptide Y receptor type 1 (Homo sapiens), sequence (P25929 whole entry): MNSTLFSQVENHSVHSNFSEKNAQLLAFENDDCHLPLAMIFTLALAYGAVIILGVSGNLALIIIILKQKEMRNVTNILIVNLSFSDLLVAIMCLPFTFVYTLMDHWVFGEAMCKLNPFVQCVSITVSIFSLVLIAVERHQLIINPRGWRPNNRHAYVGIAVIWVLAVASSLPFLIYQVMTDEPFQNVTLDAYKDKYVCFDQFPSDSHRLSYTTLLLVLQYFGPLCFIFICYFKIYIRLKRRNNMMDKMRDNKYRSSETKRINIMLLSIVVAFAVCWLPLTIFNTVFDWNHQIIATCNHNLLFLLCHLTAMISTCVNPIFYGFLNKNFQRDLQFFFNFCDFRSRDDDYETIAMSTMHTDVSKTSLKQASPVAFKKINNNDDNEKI
Prostaglandin E2 receptor EP1 subtype (Homo sapiens), sequence (P34995 whole entry): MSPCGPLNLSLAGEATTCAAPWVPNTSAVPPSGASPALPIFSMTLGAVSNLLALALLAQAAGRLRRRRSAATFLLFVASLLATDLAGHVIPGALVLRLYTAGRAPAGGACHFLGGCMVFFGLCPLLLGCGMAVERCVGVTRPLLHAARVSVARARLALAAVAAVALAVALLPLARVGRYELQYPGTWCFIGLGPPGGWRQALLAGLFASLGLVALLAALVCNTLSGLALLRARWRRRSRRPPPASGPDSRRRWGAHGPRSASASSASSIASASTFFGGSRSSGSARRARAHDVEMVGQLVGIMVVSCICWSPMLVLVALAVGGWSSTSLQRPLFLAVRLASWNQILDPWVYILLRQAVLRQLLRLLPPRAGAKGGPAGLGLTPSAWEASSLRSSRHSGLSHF
Histamine H3 receptor (Homo sapiens), sequence (Q9Y5N1 whole entry): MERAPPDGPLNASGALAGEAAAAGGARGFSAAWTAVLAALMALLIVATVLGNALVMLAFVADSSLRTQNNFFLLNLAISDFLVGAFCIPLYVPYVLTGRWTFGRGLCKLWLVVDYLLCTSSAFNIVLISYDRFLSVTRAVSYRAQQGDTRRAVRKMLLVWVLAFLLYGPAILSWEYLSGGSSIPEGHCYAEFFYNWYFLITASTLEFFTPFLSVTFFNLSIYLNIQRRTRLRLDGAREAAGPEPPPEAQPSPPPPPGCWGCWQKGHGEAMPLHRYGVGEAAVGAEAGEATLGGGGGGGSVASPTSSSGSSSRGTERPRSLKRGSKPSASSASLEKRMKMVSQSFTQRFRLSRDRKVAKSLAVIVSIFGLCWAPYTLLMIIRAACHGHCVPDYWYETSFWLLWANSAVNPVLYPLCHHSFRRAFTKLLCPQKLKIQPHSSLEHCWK
C-X-C chemokine receptor type 2 (Homo sapiens), sequence (P25025 whole entry): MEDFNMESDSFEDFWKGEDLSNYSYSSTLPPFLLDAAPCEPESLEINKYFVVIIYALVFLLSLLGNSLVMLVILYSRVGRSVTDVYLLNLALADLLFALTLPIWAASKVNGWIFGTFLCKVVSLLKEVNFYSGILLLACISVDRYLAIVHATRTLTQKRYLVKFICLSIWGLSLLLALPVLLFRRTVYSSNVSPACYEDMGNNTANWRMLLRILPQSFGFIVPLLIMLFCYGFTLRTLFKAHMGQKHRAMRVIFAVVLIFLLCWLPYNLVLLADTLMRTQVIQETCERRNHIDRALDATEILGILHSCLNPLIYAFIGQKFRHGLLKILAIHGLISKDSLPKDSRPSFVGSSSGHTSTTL
Estrogen receptor (Homo sapiens), sequence (P03372 whole entry): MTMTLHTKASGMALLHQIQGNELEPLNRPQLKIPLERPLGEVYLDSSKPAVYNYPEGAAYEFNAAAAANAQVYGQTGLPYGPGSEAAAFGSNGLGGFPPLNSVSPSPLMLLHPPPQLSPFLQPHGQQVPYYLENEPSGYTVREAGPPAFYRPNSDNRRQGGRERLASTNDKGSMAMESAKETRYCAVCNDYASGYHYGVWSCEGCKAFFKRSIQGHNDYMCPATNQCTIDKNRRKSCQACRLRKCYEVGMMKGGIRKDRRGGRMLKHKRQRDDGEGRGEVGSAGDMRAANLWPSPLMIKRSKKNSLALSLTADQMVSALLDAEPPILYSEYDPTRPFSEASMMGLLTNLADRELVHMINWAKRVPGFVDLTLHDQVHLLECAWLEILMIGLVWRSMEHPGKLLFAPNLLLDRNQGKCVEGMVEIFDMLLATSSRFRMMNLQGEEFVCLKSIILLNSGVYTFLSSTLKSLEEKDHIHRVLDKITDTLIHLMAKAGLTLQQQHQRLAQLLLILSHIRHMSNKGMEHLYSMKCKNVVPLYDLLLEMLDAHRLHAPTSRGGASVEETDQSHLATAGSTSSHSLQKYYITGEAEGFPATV
Adenosine receptor A2a (Homo sapiens), sequence (P29274 whole entry): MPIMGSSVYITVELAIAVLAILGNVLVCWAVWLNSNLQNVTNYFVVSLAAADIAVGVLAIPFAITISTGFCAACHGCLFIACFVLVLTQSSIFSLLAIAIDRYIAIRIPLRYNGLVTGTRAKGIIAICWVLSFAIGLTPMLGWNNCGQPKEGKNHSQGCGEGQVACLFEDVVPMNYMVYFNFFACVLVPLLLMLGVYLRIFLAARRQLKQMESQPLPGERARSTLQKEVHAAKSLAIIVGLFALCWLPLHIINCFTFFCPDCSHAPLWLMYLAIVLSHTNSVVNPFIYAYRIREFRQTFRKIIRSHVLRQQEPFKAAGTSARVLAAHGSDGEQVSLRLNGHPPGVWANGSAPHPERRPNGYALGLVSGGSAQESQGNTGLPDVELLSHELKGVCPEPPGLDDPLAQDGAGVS
C-C chemokine receptor type 5 (Homo sapiens), sequence (P51681 whole entry, looked up): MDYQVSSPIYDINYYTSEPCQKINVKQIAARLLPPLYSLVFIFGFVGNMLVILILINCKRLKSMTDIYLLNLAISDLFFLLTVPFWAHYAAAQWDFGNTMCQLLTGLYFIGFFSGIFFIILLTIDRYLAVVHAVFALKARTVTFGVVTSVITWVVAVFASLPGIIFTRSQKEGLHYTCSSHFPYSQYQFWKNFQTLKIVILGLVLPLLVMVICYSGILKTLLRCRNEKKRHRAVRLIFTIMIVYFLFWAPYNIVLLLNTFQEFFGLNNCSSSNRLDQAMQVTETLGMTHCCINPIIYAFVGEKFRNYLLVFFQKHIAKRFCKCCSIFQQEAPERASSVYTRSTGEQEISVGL
Substance-K receptor (Homo sapiens), sequence (P21452 whole entry): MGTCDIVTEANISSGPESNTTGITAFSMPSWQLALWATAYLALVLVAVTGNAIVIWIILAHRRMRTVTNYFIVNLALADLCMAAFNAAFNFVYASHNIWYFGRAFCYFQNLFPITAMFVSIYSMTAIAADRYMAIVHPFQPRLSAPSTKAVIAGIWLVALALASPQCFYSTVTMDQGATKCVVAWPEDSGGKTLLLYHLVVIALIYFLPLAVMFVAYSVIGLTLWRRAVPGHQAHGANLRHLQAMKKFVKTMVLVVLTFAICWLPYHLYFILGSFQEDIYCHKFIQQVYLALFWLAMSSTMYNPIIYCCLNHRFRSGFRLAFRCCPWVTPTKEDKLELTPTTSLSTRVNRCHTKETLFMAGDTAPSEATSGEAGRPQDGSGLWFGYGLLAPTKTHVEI

SMILES: O=C(O)c1cc(-c2ccc(C3CCNCC3)cc2)c2ccc(-c3ccc(C(F)(F)F)cc3)cc2c1 [PPTN]
- inhibition [1]: 2%
- inhibition [2]: -1%
- inhibition [3]: 38%
- inhibition at 3 h, 10 µM [4]: 11% (not active)
- inhibition [5]: 12%
- inhibition ([6]; Compound concentration 0.01 uM): -2%
- inhibition ([6]; Compound concentration 0.1 uM): -8%
- inhibition ([6]; Compound concentration 1.0 uM): 0%
- inhibition ([6]; Compound concentration 10.0 uM): 53%
- inhibition [7]: 2%
- inhibition [8]: 12%
- inhibition [9]: -4%
- inhibition ([10]; Compound concentration 0.1 uM): -3%
- inhibition ([10]; Compound concentration 1.0 uM): -8%
- inhibition ([10]; Compound concentration 10.0 uM): 22%
- inhibition ([10]; Compound concentration 100.0 uM): 72%
- inhibition [11]: 4%
- inhibition [12]: 4%
- inhibition (Homo sapiens [13]): 26%
- inhibition [14]: 28%
- inhibition [15]: 4%
- IC50 [16]: 0.00294 µM
- inhibition (Homo sapiens [17]; Compound concentration 0.01 uM): 9%
- inhibition (Homo sapiens [17]; Compound concentration 0.1 uM): 0%
- inhibition (Homo sapiens [17]; Compound concentration 1.0 uM): -7%
- inhibition ([18]; Compound concentration 0.01 uM): -4%
- inhibition ([18]; Compound concentration 0.1 uM): -2%
- inhibition ([18]; Compound concentration 1.0 uM): 6%
- inhibition ([18]; Compound concentration 10.0 uM): 63%
- IC50 [19]: 6.88 µM
- Ki [19]: 1 µM
- inhibition [20]: -6%
- inhibition [21]: 0%
- inhibition [22]: 26%
- IC50 [23]: 4.59 µM
- inhibition ([23]; Compound concentration 0.01 uM): -6%
- inhibition ([23]; Compound concentration 0.1 uM): -3%
- inhibition ([23]; Compound concentration 1.0 uM): 12%
- inhibition ([23]; Compound concentration 10.0 uM): 74%
- inhibition ([24]; Compound concentration 0.01 uM): 0%
- inhibition ([24]; Compound concentration 0.1 uM): 13%
- inhibition ([24]; Compound concentration 1.0 uM): 65%
- inhibition ([24]; Compound concentration 10.0 uM): 97%
- IC50 [25]: 0.56 µM
- Ki [25]: 0.23 µM
